# According to patent US20240246941A1, “SUBSTITUTED 4-(3-AMINOPROP-1-YL)AMINOQUINOLINE ANALOGS AS MODULATORS OF MELANOMA-ASSOCIATED ANTIGEN 11 UBIQUITIN LIGASE” (ST. JUDE CHILDREN'S RESEARCH HOSPITAL, INC., priority 2020, published 2024):
# Target: interaction between GST-MAGEA11 MHD and FAM-PCF11_4 peptide (MAGE-A11:PCF11) (Homo sapiens (Human), UniProt P43364)
# Assay: TR-FRET dose response competition assay for disruption of MAGE-A11:PCF11 binding
# Details: Dose response TR-FRET screening of nine scaffold groups against MAGE-A11:PCF11; read-out: consensus IC50
# In short: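 Competition TR-FRET at room temperature in 50 mM Tris pH 7.5, 20 mM MgCl2, 0.1 mg/ml BSA, 1 mM DTT: final 5 nM GST-MAGEA11 MHD, 5 nM Tb-anti-GST, 200 nM FAM-PCF11_4, 90 min. Ratio 520/490 nm converted to % inhibition; IC50 from sigmoidal fit.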
# interaction between GST-MAGEA11 MHD and FAM-PCF11_4 peptide (MAGE-A11:PCF11), sequence (P43364 218-429): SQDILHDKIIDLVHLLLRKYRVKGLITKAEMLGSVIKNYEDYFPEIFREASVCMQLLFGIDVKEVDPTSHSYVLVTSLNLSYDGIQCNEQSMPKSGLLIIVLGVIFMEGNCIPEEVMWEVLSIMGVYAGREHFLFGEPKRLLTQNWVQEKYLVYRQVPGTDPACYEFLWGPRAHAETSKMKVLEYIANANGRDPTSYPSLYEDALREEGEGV
row,SMILES,IC50 [µM]
1,C=CCOc1ccc(-c2nc3c(c(=O)[nH]c(=O)n3Cc3ccccc3)n2CCC)cc1Br [SJ000379301-1],69.9
2,CCCn1c(=O)[nH]c(=O)c2c1nc(-c1ccc(OC(F)(F)C(F)C(F)(F)F)cc1)n2CCOC (stereo not drawn) [SJ000379374-1],69.9
3,C=CCOc1ccc(-c2nc3c(c(=O)[nH]c(=O)n3CCCC)n2C)cc1Br [SJ000379462-1],69.9
4,CCCn1c(-c2ccc(SC)cc2)nc2c1c(=O)[nH]c(=O)n2Cc1ccccc1 [SJ000381119-1],69.9
5,CCCOc1ccc(-c2nc3c(c(=O)[nH]c(=O)n3Cc3ccccc3)n2CCO)cc1OCC [SJ000381474-1],69.9
6,CCCCn1c(=O)[nH]c(=O)c2c1nc(-c1ccc(SC)cc1)n2C [SJ000382100-1],69.9
7,COc1ccc(Br)cc1-c1nc2c(c(=O)[nH]c(=O)n2Cc2ccccc2)n1C [SJ000382136-1],69.9
8,CCCn1c(-c2cccc(C(F)(F)F)c2)nc2c1c(=O)[nH]c(=O)n2Cc1ccccc1 [SJ000382289-1],69.9
9,CCCn1c(-c2cccc(F)c2)nc2c1c(=O)[nH]c(=O)n2Cc1ccccc1 [SJ000382299-1],69.9
10,CCCn1c(-c2ccc(C#N)cc2)nc2c1c(=O)[nH]c(=O)n2Cc1ccccc1 [SJ000383781-1],69.9
11,COCCCn1c(-c2cccc(Cl)c2)nc2c1c(=O)[nH]c(=O)n2Cc1ccccc1 [SJ000383944-1],69.9
12,Cn1c(-c2ccc(Cl)cc2)nc2c1c(=O)[nH]c(=O)n2Cc1ccccc1 [SJ000384618-1],69.9
13,Cn1c(-c2cc(Cl)ccc2O)nc2c1c(=O)[nH]c(=O)n2Cc1ccccc1 [SJ000386224-1],69.9
14,Cn1c(-c2cccc(F)c2)nc2c1c(=O)[nH]c(=O)n2Cc1ccccc1 [SJ000387665-1],69.9
15,CCOc1ccc(-c2nc3c(c(=O)[nH]c(=O)n3Cc3ccccc3)n2C)cc1 [SJ000389476-1],69.9
16,CC(C)Cn1c(-c2cc([N+](=O)[O-])ccc2Cl)nc2c1c(=O)[nH]c(=O)n2Cc1ccccc1 [SJ000390112-1],69.9
17,CSc1ccc(-c2nc3c(c(=O)[nH]c(=O)n3CC(C)C)n2CC(C)C)cc1 [SJ000394956-1],69.9

row,SMILES,IC50 [µM]
1,CCCN1C(=O)c2ccccc2NC1c1cccc(O)c1O (stereo not drawn) [SJ000395233-1],69.9
2,COCCNC(=O)Cn1cnc2cc(-c3ccc(Cl)cc3)sc2c1=O [SJ000395304-1],69.9
3,CN(C)c1ccc(-c2nc3c(c(=O)[nH]c(=O)n3Cc3ccccc3)n2C)cc1 [SJ000396262-1],69.9
4,COc1ccc(-c2cc3ncn(CC(=O)O)c(=O)c3s2)cc1 [SJ000397503-1],69.9
5,N#CCCn1cnc2cc(-c3ccc(Br)cc3)sc2c1=O [SJ000397713-1],69.9
6,CCCCOC(=O)Cn1cnc2cc(-c3ccc(OC)cc3)sc2c1=O [SJ000399852-1],69.9
7,CCOC(=O)Cn1cnc2cc(-c3ccc(OC)cc3)sc2c1=O [SJ000399862-1],69.9
8,CCCn1c(=O)[nH]c(=O)c2c1nc(-c1ccc(C#N)cc1)n2CCN1CCOCC1 [SJ000403937-1],69.9
9,Cn1c(-c2ccc(C(F)(F)F)cc2)nc2c1c(=O)[nH]c(=O)n2Cc1ccccc1 [SJ000404631-1],69.9
10,CSc1nc2cc(-c3ccccc3)sc2c(=O)n1CCN1CCOCC1 [SJ000405932-1],69.9
11,CCCn1c(=O)[nH]c(=O)c2c1nc(-c1ccc(NC(C)=O)cc1)n2CCN1CCOCC1 [SJ000406218-1],69.9
12,COCCCn1c(-c2cc(Br)ccc2F)nc2c1c(=O)[nH]c(=O)n2Cc1ccccc1 [SJ000411586-1],69.9
13,O=C1OCC(c2ccc(Cl)cc2)=C1c1ccc([N+](=O)[O-])cc1 [SJ000413143-1],69.9
14,CCC(C)N1C(=O)c2ccccc2NC1c1cccc(OC)c1O (stereo not drawn) [SJ000413320-1],69.9
15,CCCN1C(=O)c2ccccc2NC1c1cc(Cl)c(O)c(OC)c1 (stereo not drawn) [SJ000414199-1],69.9
16,CCCCn1c(=O)[nH]c(=O)c2c1nc(-c1cccc(F)c1)n2CC [SJ000414469-1],69.9
